What was measured:
[1] = tested on: cerebrovascular morphology; test: Cerebrovascular morphology by CD31 staining after ALPL inhibitor treatment; format: in vivo; conditions: aged (22 m.o.) mice, vs vehicle
From the text: (§1) FIGS. 14A-14D are graphs illustrating flow cytometry quantification of brain endothelial cell uptake of plasma from young mice (3 m.o.) (FIG. 14A), plasma from aged mice (22 m.o.) (FIG. 14B), human holo-transferrin (hu-Tf) from aged mice (FIG. 14C), or transferrin receptor antibody (TfR Ab) from aged mice (FIG. 14D) treated with vehicle (grey) or anti-ALPL (green) via IP injections twice daily for three days, as assessed by % of BECs that are tracer^+ and relative MFI of tracer^+ BECs (for plasma, n=4; for hu-Tf, n=6 vehicle, n=5 anti-ALPL; for TfR Ab, n=9, two-sided t-test, mean+/−s.e.m.). Tracer refers to plasma, hu-Tf, or TfR Ab. FIG. 14E includes representative images of hu-Tf^+ neurons detected in the cortex of mice treated with ALPL inhibitor. Scale bar=40 microns. […] FIG. 14H includes graphs illustrating flow cytometry quantification of brain endothelial cell and brain parenchymal cell uptake of 3 kDa dextran tracer, which probes for disruptions in paracellular permeability, in young mice (3 m.o.) and aged mice (22 m.o.) (n=6 vehicle, n=5 anti-ALPL, two-sided t-test, mean+/−s.e.m.).
Brain tissue processing, immunohistochemistry, and immunofluorescence experiments were performed as described previously12,13. […] National Institutes of Health ImageJ software was used to quantify the percentage of vasculature (CD31 or AQP4) covered by CD13, AQP4, or ALPL, as described previously63. […]

[2] = tested on: paracellular tight junctions; test: 3 kDa dextran tracer uptake probing paracellular permeability after ALPL inhibitor treatment; format: in vivo; conditions: young and aged mice, vs vehicle
From the text: FIGS. 14A-14D are graphs illustrating flow cytometry quantification of brain endothelial cell uptake of plasma from young mice (3 m.o.) (FIG. 14A), plasma from aged mice (22 m.o.) (FIG. 14B), human holo-transferrin (hu-Tf) from aged mice (FIG. 14C), or transferrin receptor antibody (TfR Ab) from aged mice (FIG. 14D) treated with vehicle (grey) or anti-ALPL (green) via IP injections twice daily for three days, as assessed by % of BECs that are tracer^+ and relative MFI of tracer^+ BECs (for plasma, n=4; for hu-Tf, n=6 vehicle, n=5 anti-ALPL; for TfR Ab, n=9, two-sided t-test, mean+/−s.e.m.). Tracer refers to plasma, hu-Tf, or TfR Ab. FIG. 14E includes representative images of hu-Tf^+ neurons detected in the cortex of mice treated with ALPL inhibitor. Scale bar=40 microns. FIG. 14F includes graphs showing circulating human holo-transferrin and transferrin receptor antibody in blood plasma upon time of sacrifice to control for and ensure no differences in injected amount (for hu-Tf+, n=6 vehicle, n=5 anti-ALPL; for TfR Ab, n=9, two-sided t-test, mean+/−s.e.m.). […] FIG. 14H includes graphs illustrating flow cytometry quantification of brain endothelial cell and brain parenchymal cell uptake of 3 kDa dextran tracer, which probes for disruptions in paracellular permeability, in young mice (3 m.o.) and aged mice (22 m.o.) (n=6 vehicle, n=5 anti-ALPL, two-sided t-test, mean+/−s.e.m.). […]

[3] = tested on: brain endothelial cells; test: Flow cytometry of brain endothelial cell uptake of tracer after ALPL inhibitor treatment; format: in vivo, mice; conditions: Atto 647N-labeled plasma, vs vehicle
From the text: as §1
CNS cell isolation adopted previously described methods42,139,140. […] For analysis of plasma uptake, at least 1,000 cells of each population of interest were analyzed per sample. […]

## COc1ccc(OC)c(S(=O)(=O)Nc2cnc3ccccc3c2)c1 [ALPL inhibitor, 2,5-Dimethoxy-N-(quinolin-3-yl)benzenesulfonamide]
[1]
  vascular morphology: did not perturb
[2]
  paracellular tight junctions: did not perturb vascular morphology or compromise
[3]; aged (22 m.o.) mice
  plasma uptake in brain endothelial cells, aged mice: increased
[3]; young (3 m.o.) mice
  plasma uptake in brain endothelial cells, young mice: increased

From patent US20230257480A1, “ENHANCING BLOOD-BRAIN BARRIER DRUG TRANSPORT BY TARGETING ENDOGENOUS REGULATORS” (THE BOARD OF TRUSTEES OF THE LELAND STANFORD JUNIOR …, priority 2019, published 2023)
